Measured values from patent US7622481B2, “Antibacterial compounds” (priority 2003, dated 2009).
Where a name gives a salt, the structure may show the parent alone. Read-outs that look alike come from different tables or passages of the source.

Assay: MIC of test compounds against various organisms
Assay type: cell-based
Experimental: The MIC (μg/ml) of test compounds against various organisms was determined including:
S. epidermidis CL7, S. aureus WCUH29, S. pneumoniae 1629, S. pyogenes CN10, H. influenzae ATCC 49247, E. faecalis 2, M. catarrhalis Ravasio, E. coli 7623.

[1] = versus all these organisms (panel of 8 strains), read-out: MIC

MIC [1] [µg/mL]	SMILES	MIC [µg/mL]
≤ 8	Cc1ccc2cccc(NC(=O)[C@H]3CC[C@H](NCc4cc5c(cn4)OCCO5)CC3)c2n1 [Example 36, t-4-[(2,3-Dihydro-[1,4]dioxino[2,3-c]pyridin-7-ylmethyl)-amino]-cyclohexanecarboxylic acid (2-methyl-quinolin-8-yl)-amide dihydrochloride]	–
≤ 2	N#Cc1ccc2cccc(NC(=O)[C@]3(O)CC[C@@H](NCc4ccc5c(n4)NC(=O)CO5)CC3)c2n1 [Example 11, 1-Hydroxy-t-4-[(3-oxo-3,4-dihydro-2H-pyrido[3,2-b][1,4]oxazin-6-ylmethyl)-amino]-r-cyclohexanecarboxylic acid (2-cyano-quinolin-8-yl)-amide hydrochloride]	–
≤ 2	N#Cc1ccc2cccc(NC(=O)[C@]3(O)CC[C@@H](NCc4cc5c(cn4)OCCO5)CC3)c2n1 [Example 38, t-4-[(2,3-Dihydro-[1,4]dioxino[2,3-c]pyridin-7-ylmethyl)-amino]-1-hydroxy-r-cyclohexanecarboxylic acid (2-cyano-quinolin-8-yl)-amide hydrochloride]	–
≤ 2	Cc1ccc2cccc(NC(=O)[C@]3(O)CC[C@@H](NCc4cc5c(cn4)OCC(=O)N5)CC3)c2n1 [Example 22, 1-Hydroxy-t-4-[(2-oxo-2,3-dihydro-1H-pyrido[3,4-b][1,4]oxazin-7-ylmethyl)-amino]-r-cyclohexanecarboxylic acid (2-methyl-quinolin-8-yl)-amide dihydrochloride]	–
≤ 8	Cc1ccc2cccc(NC(=O)[C@]3(O)CC[C@@H](NCc4cc5c(cn4)OCCO5)CC3)c2n1 [Example 35, t-4-[(2,3-Dihydro-[1,4]dioxino[2,3-c]pyridin-7-ylmethyl)-amino]-1-hydroxy-c-cyclohexanecarboxylic acid (2-methyl-quinolin-8-yl)-amide dihydrochloride]	–

The remaining lines, values behind:

SMILES	MIC [1] [µg/mL]	MIC [µg/mL]
COc1ccc2cccc(NC(=O)[C@]3(O)CC[C@@H](NCc4ccc5c(n4)NC(=O)CS5)CC3)c2n1 [Example 5, 1-Hydroxy-t-4-[(3-oxo-3,4-dihydro-2H-pyrido[3,2-b][1,4]thiazin-6-ylmethyl)-amino]-r-cyclohexanecarboxylic acid (2-methoxy-quinolin-8-yl)-amide]	≤ 2	–
N#Cc1ccc2cccc(NC(=O)[C@@H]3CC[C@@H](NCc4cc5c(cn4)OCCO5)[C@@H](O)C3)c2n1 [Example 37, (1R,3S,4R)-4-[(2,3-Dihydro-[1,4]dioxino[2,3-c]pyridin-7-ylmethyl)-amino]-3-hydroxy-cyclohexanecarboxylic acid (2-cyano-quinolin-8-yl)-amide hydrochloride]	–	≤ 2
COc1nccc2cccc(NC(=O)[C@]3(O)CC[C@@H](NCc4ccc5c(n4)NC(=O)CS5)CC3)c12 [Example 27, 1-Hydroxy-t-4-[(3-oxo-3,4-dihydro-2H-pyrido[3,2-b][1,4]thiazin-6-ylmethyl)-amino]-r-cyclohexanecarboxylic acid (1-methoxy-isoquinolin-8-yl)-amide hydrochloride]	≤ 8	–
N#Cc1ccc2cccc(NC(=O)[C@]3(O)CC[C@@H](NCc4ccc5c(n4)NC(=O)CS5)CC3)c2n1 [Example 10, 1-Hydroxy-t-4-[(3-oxo-3,4-dihydro-2H-pyrido[3,2-b][1,4]thiazin-6-ylmethyl)-amino]-r-cyclohexanecarboxylic acid (2-cyano-quinolin-8-yl)-amide dihydrochloride]	≤ 2	–
N#Cc1ccc2cccc(NC(=O)[C@@H]3CC[C@@H](NCc4ccc5c(n4)NC(=O)CO5)[C@@H](O)C3)c2n1 [Example 9, (1R,3S,4R)-3-Hydroxy-4-[(3-oxo-3,4-dihydro-2H-pyrido[3,2-b][1,4]oxazin-6-ylmethyl)-amino]-cyclohexanecarboxylic acid (2-cyano-quinolin-8-yl)-amide hydrochloride]	≤ 2	–
COc1ccc2cccc(NC(=O)[C@@H]3CC[C@@H](NCc4ccc5c(n4)NC(=O)CS5)[C@H](O)C3)c2n1 [Example 20, (1R,3R,4R)-3-Hydroxy-4-[(3-oxo-3,4-dihydro-2H-pyrido[3,2-b)[1,4]thiazin-6-ylmethyl)-amino]-cyclohexanecarboxylic acid (2-methoxy-quinolin-8-yl)-amide dihydrochloride]	≤ 2	–
COc1ccc2cccc(NC(=O)[C@]3(O)CC[C@@H](NCc4ccc5c(n4)NCCS5)CC3)c2n1 [Example 6, 4-[(3,4-Dihydro-2H-pyrido[3,2-b][1,4]thiazin-6-ylmethyl)-amino]-1-hydroxy-cyclohexanecarboxylic acid (2-methoxy-quinolin-8-yl)-amide]	≤ 8	–
COc1cnc2cccc(NC(=O)[C@]3(O)CC[C@@H](NCc4ccc5c(n4)NC(=O)CS5)CC3)c2n1 [Example 34, 1-Hydroxy-t-4-[(3-oxo-3,4-dihydro-2Hpyrido[3,2-b][1,4]thiazin-6-ylmethyl)-amino]-r-cyclohexanecarboxylic acid (3-methoxy-quinoxalin-5-yl)-amide hydrochloride]	≤ 2	–
N#Cc1ccc2cccc(NC(=O)[C@@H]3CC[C@@H](NCc4ccc5c(n4)NC(=O)CS5)[C@@H](O)C3)c2n1 [Example 16, (1R,3S,4R)-3-Hydroxy-4-[(3-oxo-3,4-dihydro-2H-pyrido[3,2-b][1,4]thiazin-6-ylmethyl)-amino]-cyclohexanecarboxylic acid (2-cyano-quinolin-8-yl)-amide hydrochloride]	≤ 2	–
